Laboratory results taken from patent US10844049B2, “GLP-1R agonists and uses thereof” (QILU REGOR THERAPEUTICS INC., priority 2018, dated 2020).

molecular target: GLP1R (Homo sapiens, UniProt P43220); assay: GLP1R cAMP HTRF assay, HEK293/GLP-1R/CRE/Luc (HEK293T cells); assay type: cell-based; details: read-out: EC50
Method: GLP-1R-mediated agonist activity was determined with a cell-based functional assay utilizing an HTRF (Homogeneous Time-Resolved Fluorescence) cAMP detection kit (cAMP Dynamic 2 Assay Kit; CisBio cat #62AM4PEC) that measures cAMP levels in the cell. The method is a competitive immunoassay between native cAMP produced by the cells and exogenous cAMP labeled with the dye d2. The tracer binding is visualized by a mAb anti-cAMP labeled with Cryptate. The specific signal (i.e., energy transfer) is inversely proportional to the concentration of cAMP in either standard or experimental sample.
A cell line stably expressing the receptor was isolated.
Varying concentrations of each compound to be tested (in DMSO) were diluted in DMSO to obtain 200× compound working solution first and then 50 nl compounds were added to a white 384-well assay plate (Greiner 784075) with ECHO. The final DMSO concentration was 0.5%. The compound concentration range may be adjusted at any time.
Cells were removed from cryopreservation, re-suspended in 5 mL of Dulbecco's Phosphate Buffered Saline (DPBS-Sigma Cat # D8537) and centrifuged at 900 g for 5 min at 22° C. The cell pellet was then re-suspended in 1 mL of assay buffer [DPBS with 500 μM IBMX (Sigma #15879) and 0.1% BSA (Sigma # A1933). IBMX and BSA were freshly added on the day of assay]. A 10 μL sample of the cell suspension was counted on an Invitrogen Countess II to determine cell viability and cell count per mL. The remaining cell suspension was then adjusted with assay buffer to deliver 1000 viable cells per well using a Matrix Combi Multidrop reagent dispenser. 10 μL cell suspensions were added to each well of the assay plate which already contains compound. The plate was sealed and incubated at 37° C. with 5% CO2 for 30 minutes.
Following the 30 minute incubation, 5 μL of labeled d2 cAMP and 5 μL of anti-cAMP antibody (both diluted 1:20 in cell lysis buffer; as described in the manufacturer's assay protocol) were added to each well of the assay plate. The plates w ere then incubated at room temperature and after 60 minutes, changes in the HTRF signal were read with an Envision multi-label plate reader using excitation of 330 nm and emissions of 615 and 665 nm. Raw data were converted to nM cAMP by interpolation from a cAMP standard curve (as described in the manufacturer's assay protocol) and the percent effect was determined relative to a saturating concentration of the full agonist GLP-17-37 (10 nM) included on each plate. EC50 determinations were made from agonist dose-response curves analyzed with a curve fitting program using a 4-parameter logistic dose response equation.
3) Anti-cAMP antibody-cryptate working solution preparation • c) The lyophilisate was reconstituted with appropriate amount of distilled water according to manufacturer's instruction to make working stock which can be aliquoted and frozen (−20° C.). • d) The working stock solution was diluted 1:20 in the conjugate and lysis buffer before use. Procedures Procedures for Cell Suspension Preparation • 1. Frozen cells were thawed very briefly in a 37° C. water bath under sterile conditions until just before ice completely melt (for about 1 minute) with a continuous agitation. Caution was taken because a longer incubation could result in cell death. • 2. DMSO was removed from the media by carefully transferring thawed cells to a sterile 15/50 mL tube, filling a tube with 10-50 mL of complete media pre-warmed to 37° C., and allowing the cells to sit 5 min before centrifuging at 900 rpm for 5 minutes for cell collection. • 3. The cells were resuspended with assay buffer. • 4. For stable GLP1-R assay, the optimized cell density is 1000 cells/well. Caution was taken because cell density optimization was crucial and needed to be optimized in different laboratories. The level of cAMP produced by the cells must fall within the linear range of the standard curve.

Chain of GLP1R (P43220 24-463): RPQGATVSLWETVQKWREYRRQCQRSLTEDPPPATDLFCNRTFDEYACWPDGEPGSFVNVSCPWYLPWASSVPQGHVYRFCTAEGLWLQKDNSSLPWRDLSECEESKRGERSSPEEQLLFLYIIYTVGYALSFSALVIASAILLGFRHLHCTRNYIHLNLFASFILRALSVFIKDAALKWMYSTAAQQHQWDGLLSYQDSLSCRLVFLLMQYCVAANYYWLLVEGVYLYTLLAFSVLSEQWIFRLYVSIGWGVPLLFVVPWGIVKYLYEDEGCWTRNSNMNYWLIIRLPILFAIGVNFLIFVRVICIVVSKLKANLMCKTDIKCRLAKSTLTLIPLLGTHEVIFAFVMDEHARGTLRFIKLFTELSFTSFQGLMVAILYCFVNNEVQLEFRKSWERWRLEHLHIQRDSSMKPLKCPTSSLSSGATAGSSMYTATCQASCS

Row | Compound | EC50
1 | O=C(O)c1ccc2nc(CN3CC=C(c4ccnc(NCc5ccc(Cl)cc5F)c4)CC3)n(C[C@@H]3CCO3)c2c1 [Compound 130, (S)-2-((2′-((4-chloro-2-fluorobenzyl)amino)-3,6-dihydro-[4,4′-bipyridin]-1(2H)-yl)methyl)-1-(oxetan-2-ylmethyl)-1H-benzo[d]imidazole-6-carboxylic add] | ≤ 1000 nM
2 | O=C(O)c1ccc2nc(CN3CC=C(c4cc5nc[nH]c5c(OCc5ccc(Cl)cc5F)n4)CC3)n(C[C@@H]3CCO3)c2c1 [Compound 58, (S)-2-((4-(4-((4-chloro-2-fluorobenzyl)oxy)-3H-imidazo[4,5-c]pyridin-6-yl)-3,6-dihydropyridin-1(2H)-yl)methyl)-1-(oxetan-2-ylmethyl)-1H-benzo[d]imidazole-6-carboxylic acid] | > 1000 nM
3 | N#Cc1ccc(COc2cc(N3CCN(Cc4nc5ccc(C(=O)O)cc5n4C[C@@H]4CCO4)CC3)ccc2F)c(F)c1 [Compound 195, (S)-2-((4-(3-((4-cyano-2-fluorobenzyl)oxy)-4-fluorophenyl)piperazin-1-yl)methyl)-1-(oxetan-2-ylmethyl)-1H-benzo[d]imidazole-6-carboxylic add] | ≤ 15 nM
4 | Cc1ccc(C2=CCN(Cc3nc4ccc(C(=O)O)cc4n3C[C@@H]3CCO3)CC2)cc1OCc1ccc(Cl)cc1F [Compound 64, (S)-2-((4-(3-((4-chloro-2-fluorobenzyl)oxy)-4-methylphenyl)-3,6-dihydropyridin-1(2H)-yl)methyl)-1-(oxetan-2-ylmethyl)-1H-benzo[d]imidazole-6-carboxylic acid] | ≤ 150 nM
5 | O=C(O)c1ccc2nc(CN3CC=C(c4nccc(OCc5ccc(C#CC6CC6)cc5F)n4)CC3)n(C[C@@H]3CCO3)c2c1 [Compound 200, (S)-2-((4-(4-((4-(cyclopropylethynyl)-2-fluorobenzyl)oxy)pyrimidin-2-yl)-3,6-dihydropyridin-1(2H)-yl)methyl)-1-(oxetan-2-ylmethyl)-1H-benzo[d]imidazole-6-carboxylic acid] | ≤ 15 nM
6 | O=C(O)c1ccc2nc(CN3CCC(=O)N(c4cccc(OCc5ccc(Cl)cc5F)n4)CC3)n(C[C@@H]3CCO3)c2c1 [Compound 57] | ≤ 1000 nM
7 | O=C(O)c1ccc2nc(CN3CCN(c4ccc(F)c(OCc5ccc(C#CC6CC6)cc5F)c4)CC3)n(C[C@@H]3CCO3)c2c1 [Compound 196, (S)-2-((4-(3-((4-(cyclopropylethynyl)-2-fluorobenzyl)oxy)-4-fluorophenyl)piperazin-1-yl)methyl)-1-(oxetan-2-ylmethyl)-1H-benzo[d]imidazole-6-carboxylic add] | ≤ 150 nM
8 | O=C(O)c1ccc2nc(CN3CCN(c4ccc5c(n4)N(Cc4ccc(Cl)cc4F)CCO5)CC3)n(C[C@@H]3CCO3)c2c1 [Compound 4, (S)-2-((4-(4-(4-chloro-2-fluorobenzyl)-3H-dihydro-2H-pyrido[3,2-b][1H]oxazin-6-yl)piperazin-1-yl)methyl)-1-(oxetan-2-ylmethyl)-1H-benzo[d]imidazole-6-carboxylic acid] | > 1000 nM
9 | N#Cc1ccc(CNc2nc(C3=CCN(Cc4nc5ccc(C(=O)O)cc5n4C[C@@H]4CCO4)CC3)c(F)cc2F)c(F)c1 [Compound 217, (S)-2-((6-((4-cyano-2-fluorobenzyl)amino)-3,5-difluoro-3′,6′-dihydro-[2,4′-bipyridin]-1′(2′H)-yl)methyl)-1-(oxetan-2-ylmethyl)-1H-benzo[d]imidazole-6-carboxylic add] | ≤ 15 nM
10 | O=C(O)c1ccc2nc(CN3CC=C(c4nc(OCc5ccc(C#CC6CC6)cc5F)c(F)cc4F)CC3)n(C[C@@H]3CCO3)c2c1 [Compound 213, (S)-2-((4-(6-(4-(cyclopropylethynyl)-2-fluorobenzyloxy)-3,5-difluoropyridin-2-yl)-5,6-dihydropyridin-1(2H)-yl)methyl)-3-(oxetan-2-ylmethyl)-3H-benzo[d]imidazole-5-carboxylic add] | ≤ 15 nM
11 | O=C(NO)c1ccc2nc(CN3CC=C(c4cccc(OCc5ccc(Cl)cc5F)n4)CC3)n(C[C@@H]3CCO3)c2c1 [Compound 174, (S)-2-((6-((4-chloro-2-fluorobenzyl)oxy)-5′,6′-dihydro-[2,4′-bipyridin]-1′(2′H)-yl)methyl)-N-hydroxy-1-(oxetan-2-ylmethyl)-1H-benzo[d]imidazole-6-carboxamide] | ≤ 15 nM
12 | O=C(O)c1ccc2nc(CN3CC=C(c4cccc(OCc5ccc(-n6ccnc6)cc5)n4)CC3)n(C[C@@H]3CCO3)c2c1 [Compound 154, (S)-2-((6-((4-(1H-imidazol-1-yl)benzyl)oxy)-3′,6′-dihydro-[2,4′-bipyridin]-1′(2′H)-yl)methyl)-1-(oxetan-2-ylmethyl)-1H-benzo[d]imidazole-6-carboxylic acid] | ≤ 15 nM
13 | O=C(O)c1ccc2nc(CN3CC=C(n4cccc(OCc5ccc(Cl)cc5F)c4=O)CC3)n(C[C@@H]3CCO3)c2c1 [Compound 51, (S)-2-((4-(3-(4-chloro-2-fluorobenzyloxy)-2-oxopyridin-1(2H)-yl)-5,6-dihydropyridin-1(2H)-yl)methyl)-1-(oxetan-2-ylmethyl)-1 h-benzo[d]imidazole-6-carboxylic acid] | > 1000 nM
14 | N#CC1(c2cccc(OCc3ccc(Cl)cc3F)n2)CCN(Cc2nc3ccc(C(=O)O)cc3n2C[C@@H]2CCO2)CC1 [Compound 66, (S)-2-((4-(6-((4-chloro-2-fluorobenzyl)oxy)pyridin-2-yl)-4-cyanopiperidin-1-yl)methyl)-1-(oxetan-2-ylmethyl)-1H-benzo[d]imidazole-6-carboxylic acid] | > 1000 nM
15 | O=C(O)c1ccc2nc(CN3CC=C(c4cccc(OCc5cc(Cl)cc(C(F)(F)F)c5)n4)CC3)n(C[C@@H]3CCO3)c2c1 [Compound 143, (S)-2-((6-((3-chloro-5-(trifluoromethyl)benzyl)oxy)-3′,6′-dihydro-[2H′-bipyridin]-1′(2′H)-yl)methyl)-1-(oxetan-2-ylmethyl)-1H-benzo[d]imidazole-6-carboxylic acid] | ≤ 15 nM
16 | O=C(O)c1ccc2nc(CN3CC=C(c4nc(NCc5ccc(Cl)cc5F)c(F)cc4F)CC3)n(C[C@@H]3CCO3)c2c1 [Compound 133, (S)-2-((4-(6-(4-chloro-2-fluorobenzylamino)-3,5-difluoropyridin-2-yl)-5,6-dihydropyridin-1(2H)-yl)methyl)-1-(oxetan-2-ylmethyl)-1H-benzo[d]imidazole-6-carboxylic acid] | ≤ 15 nM
17 | O=C(O)c1ccc2nc(CN3CCN(c4cc(F)cc(OCc5ccc(Cl)cc5F)c4)CC3)n(C[C@@H]3CCO3)c2c1 [Compound 185, (S)-2-((4-(3-((4-chloro-2-fluorobenzyl)oxy)-5-fluorophenyl)piperazin-1-yl)methyl)-1-(oxetan-2-ylmethyl)-1H-benzo[d]imidazole-6-carboxylic acid] | ≤ 15 nM
18 | N#Cc1ccc(COc2ccc(F)c(C3=CCN(Cc4nc5ccc(C(=O)O)cc5n4C[C@@H]4CCO4)CC3)n2)c(F)c1 [Compound 223, (S)-2-((6-((4-cyano-2-fluorobenzyl)oxy)-3-fluoro-3′,6′-dihydro-[2,4′-bipyridin]-1(2′H)-yl)methyl)-1-(oxetan-2-ylmethyl)-1H-benzo[d]imidazole-6-carboxylic acid] | ≤ 15 nM
19 | O=C(O)c1ccc2nc(CN3CC=C(c4ccnc(NCc5ccc(Cl)cc5F)n4)CC3)n(C[C@@H]3CCO3)c2c1 [Compound 125, (S)-2-((4-(2-((4-chloro-2-fluorobenzyl)amino)pyrimidin-4-yl)-3,6-dihydropyridin-1(2H)-yl)methyl)-1-(oxetan-2-ylmethyl)-1H-benzo[d]imidazole-6-carboxylic add] | ≤ 150 nM
20 | (S)-2-((4-(3-((4-cyano-2-fluorobenzyl)oxy)-5-fluorophenyl)-5,6-dihydropyridin-1(2H)-yl)methyl)-1-(oxetan-2-ylmethyl)-1H-benzo[d]imidazole-6-carboxylic add [Compound 218] | ≤ 150 nM
